Assay results: PubChem BioAssay (NCI)
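Method: 48-hour compound exposure of cells in 96-well plates, five concentrations, linear interpolation of endpoints. TGI is the concentration that stops growth completely.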

Key:
Assay in all cases: NCI-60 cell line screen, 48 h
LXFL 529 NSCLC = test system: LXFL 529 NSCLC
DMS 273 small cell lung = test system: DMS 273 small cell lung
SN12C renal = test system: SN12C renal
OVCAR-5 ovarian = test system: OVCAR-5 ovarian
RXF 393 renal = test system: RXF 393 renal
COLO 205 colon = test system: COLO 205 colon
KM12 colon = test system: KM12 colon
U251 CNS = test system: U251 CNS
HCT-15 colon = test system: HCT-15 colon
SK-OV-3 ovarian = test system: SK-OV-3 ovarian
IGROV1 ovarian = test system: IGROV1 ovarian
SNB-19 CNS = test system: SNB-19 CNS
OVCAR-4 ovarian = test system: OVCAR-4 ovarian
SW-620 colon = test system: SW-620 colon
SNB-75 CNS = test system: SNB-75 CNS
SK-MEL-28 melanoma = test system: SK-MEL-28 melanoma
XF 498 CNS = test system: XF 498 CNS
M14 melanoma = test system: M14 melanoma
LOX IMVI melanoma = test system: LOX IMVI melanoma
SF-539 CNS = test system: SF-539 CNS
OVCAR-8 ovarian = test system: OVCAR-8 ovarian
ACHN renal = test system: ACHN renal
MOLT-4 leukemia = test system: MOLT-4 leukemia
HCC-2998 colon = test system: HCC-2998 colon
OVCAR-3 ovarian = test system: OVCAR-3 ovarian
SR leukemia = test system: SR leukemia
A549 NSCLC = test system: A549 NSCLC
UO-31 renal = test system: UO-31 renal
NCI-H23 lung = test system: NCI-H23 lung
TK-10 renal = test system: TK-10 renal
M19-MEL melanoma = test system: M19-MEL melanoma
SF-295 CNS = test system: SF-295 CNS
SK-MEL-5 melanoma = test system: SK-MEL-5 melanoma
CCRF-CEM leukemia = test system: CCRF-CEM leukemia
NCI-H460 lung = test system: NCI-H460 lung
EKVX NSCLC = test system: EKVX NSCLC
UACC-62 melanoma = test system: UACC-62 melanoma
K-562 leukemia = test system: K-562 leukemia
HOP-18 NSCLC = test system: HOP-18 NSCLC
DLD-1 colon = test system: DLD-1 colon
SNB-78 CNS = test system: SNB-78 CNS
HL-60(TB) leukemia = test system: HL-60(TB) leukemia
NCI-H226 lung = test system: NCI-H226 lung
786-0 renal = test system: 786-0 renal
HT29 colon = test system: HT29 colon
RPMI-8226 leukemia = test system: RPMI-8226 leukemia
DMS 114 small cell lung = test system: DMS 114 small cell lung
SF-268 CNS = test system: SF-268 CNS
RXF-631 renal = test system: RXF-631 renal
HOP-62 NSCLC = test system: HOP-62 NSCLC
MALME-3M melanoma = test system: MALME-3M melanoma
KM20L2 colon = test system: KM20L2 colon
CAKI-1 renal = test system: CAKI-1 renal
A498 renal = test system: A498 renal
NCI-H522 lung = test system: NCI-H522 lung
UACC-257 melanoma = test system: UACC-257 melanoma
HOP-92 NSCLC = test system: HOP-92 NSCLC
HCT-116 colon = test system: HCT-116 colon

NC(=O)c1ncn(Cc2ccccc2)c1CNC(N)=S
TGI (LXFL 529 NSCLC): > 100 µM | TGI (DMS 273 small cell lung): > 100 µM | TGI (SN12C renal): > 100 µM | TGI (OVCAR-5 ovarian): > 100 µM | TGI (RXF 393 renal): > 100 µM | TGI (COLO 205 colon): > 100 µM | TGI (KM12 colon): > 100 µM | TGI (U251 CNS): > 100 µM | TGI (HCT-15 colon): > 100 µM | TGI (SK-OV-3 ovarian): > 100 µM | TGI (IGROV1 ovarian): > 100 µM | TGI (SNB-19 CNS): > 100 µM | TGI (OVCAR-4 ovarian): > 100 µM | TGI (SW-620 colon): > 100 µM | TGI (SNB-75 CNS): > 100 µM | TGI (SK-MEL-28 melanoma): > 100 µM | TGI (XF 498 CNS): > 100 µM | TGI (M14 melanoma): > 100 µM | TGI (LOX IMVI melanoma): > 100 µM | TGI (SF-539 CNS): > 100 µM | TGI (OVCAR-8 ovarian): > 100 µM | TGI (ACHN renal): > 100 µM | TGI (MOLT-4 leukemia): > 100 µM | TGI (HCC-2998 colon): > 100 µM | TGI (OVCAR-3 ovarian): > 100 µM | TGI (SR leukemia): > 100 µM | TGI (A549 NSCLC): > 100 µM | TGI (UO-31 renal): > 100 µM | TGI (NCI-H23 lung): > 100 µM | TGI (TK-10 renal): > 100 µM | TGI (M19-MEL melanoma): > 100 µM | TGI (SF-295 CNS): > 100 µM | TGI (SK-MEL-5 melanoma): > 100 µM | TGI (CCRF-CEM leukemia): > 100 µM | TGI (NCI-H460 lung): > 100 µM | TGI (EKVX NSCLC): > 100 µM | TGI (UACC-62 melanoma): > 100 µM | TGI (K-562 leukemia): > 100 µM | TGI (HOP-18 NSCLC): > 100 µM | TGI (DLD-1 colon): > 100 µM | TGI (SNB-78 CNS): > 100 µM | TGI (HL-60(TB) leukemia): > 100 µM | TGI (NCI-H226 lung): > 100 µM | TGI (786-0 renal): > 100 µM | TGI (HT29 colon): > 100 µM | TGI (RPMI-8226 leukemia): > 100 µM | TGI (DMS 114 small cell lung): > 100 µM | TGI (SF-268 CNS): > 100 µM | TGI (RXF-631 renal): > 100 µM

Cc1ccc(N=NC(C2=NC(=O)CS2)c2nc3ccccc3[nH]2)cc1 (stereo not given)
TGI (LXFL 529 NSCLC): > 100 µM | TGI (DMS 273 small cell lung): > 100 µM | TGI (SN12C renal): > 100 µM | TGI (OVCAR-5 ovarian): > 100 µM | TGI (COLO 205 colon): > 100 µM | TGI (HOP-62 NSCLC): 69.3 µM | TGI (KM12 colon): > 100 µM | TGI (U251 CNS): > 100 µM | TGI (MALME-3M melanoma): > 100 µM | TGI (HCT-15 colon): > 100 µM | TGI (SK-OV-3 ovarian): > 100 µM | TGI (IGROV1 ovarian): > 100 µM | TGI (KM20L2 colon): > 100 µM | TGI (SNB-19 CNS): > 100 µM | TGI (OVCAR-4 ovarian): > 100 µM | TGI (SW-620 colon): > 100 µM | TGI (SNB-75 CNS): > 100 µM | TGI (SK-MEL-28 melanoma): > 100 µM | TGI (XF 498 CNS): > 100 µM | TGI (CAKI-1 renal): > 100 µM | TGI (A498 renal): > 100 µM | TGI (NCI-H522 lung): > 100 µM | TGI (M14 melanoma): > 100 µM | TGI (SF-539 CNS): > 100 µM | TGI (OVCAR-8 ovarian): > 100 µM | TGI (ACHN renal): > 100 µM | TGI (MOLT-4 leukemia): 76.7 µM | TGI (OVCAR-3 ovarian): > 100 µM | TGI (SR leukemia): > 100 µM | TGI (A549 NSCLC): > 100 µM | TGI (UO-31 renal): > 100 µM | TGI (NCI-H23 lung): > 100 µM | TGI (TK-10 renal): > 100 µM | TGI (UACC-257 melanoma): > 100 µM | TGI (HOP-92 NSCLC): > 100 µM | TGI (M19-MEL melanoma): > 100 µM | TGI (SF-295 CNS): > 100 µM | TGI (SK-MEL-5 melanoma): > 100 µM | TGI (CCRF-CEM leukemia): > 100 µM | TGI (NCI-H460 lung): > 100 µM | TGI (HCT-116 colon): > 100 µM | TGI (EKVX NSCLC): > 100 µM | TGI (UACC-62 melanoma): > 100 µM | TGI (K-562 leukemia): > 100 µM | TGI (DLD-1 colon): > 100 µM | TGI (HL-60(TB) leukemia): > 100 µM | TGI (NCI-H226 lung): > 100 µM | TGI (HT29 colon): > 100 µM | TGI (RPMI-8226 leukemia): > 100 µM | TGI (DMS 114 small cell lung): > 100 µM | TGI (SF-268 CNS): > 100 µM
